Structures can show the parent of a compound that is named as a salt.

`CCc1cccc(-c2[nH]nc(C)c2-c2ccncc2)c1` [Example A-185, 4-[3-(3-ethylphenyl)-5-methyl-1H-pyrazol-4-yl]pyridine]: the melting point (as a rule, the temperature, or range, at which the solid turns liquid) is 189.25 °C.

Consider `CN1CCN(c2n[nH]c(-c3ccc(N(C)C)cc3)c2-c2ccncc2)CC1` [Example A-421, 1-[5-(4-dimethylaminophenyl)-4-(4-pyridinyl)-1H-pyrazol-3-yl]-4-methylpiperazine], for which the melting point was > 300 °C (dec.).

The molecule `COc1ccc(CNc2nccc(-c3cn[nH]c3-c3ccc(F)cc3)n2)cc1` [Example A-305, 4-[3-(4-fluorophenyl)-1H-pyrazol-4-yl]-N-[(4-methoxyphenyl)methyl)-2-pyrimidinamine] had a melting point of 183 to 185 °C. Under `NNc1cc(-c2c[nH]nc2-c2cccc(Cl)c2)ccn1` [Example A-219, 4-[3-(3-chlorophenyl)-1H-pyrazol-4-yl]-2(1H)-pyridinone hydrazone] stands 163 to 164 °C; under `Fc1ccc(-c2n[nH]cc2-c2ccnc(NCc3ccccc3)n2)cc1` [Example A-303, 4-[3-(4-fluorophenyl)-1H-pyrazol-4-yl]-N-(phenylmethyl)-2-pyrimidinamine], 216 to 217 °C. Under `Cc1ccc(S(=O)(=O)Nc2[nH]nc(-c3ccc(Cl)cc3)c2-c2ccncc2)cc1` [Example A-484] stands 284.3 to 284.4 °C; under `Fc1ccc(-c2[nH]ncc2-c2ccnc(NC3CC3)n2)cc1` [Example A-304, N-cyclopropyl-4-[3-(4-fluorophenyl)-1H-pyrazol-4-yl]-2-pyrimidinamine], 203 to 204 °C. The same measure for `NNc1nccc(-c2cn[nH]c2-c2ccc(F)cc2)n1` [Example A-300, 4-[3-(4-fluorophenyl)-1H-pyrazol-4-yl]-2(1H)-pyrimidinone hydrazone]: 149 to 150 °C; for `CN1CCN(c2n[nH]c(-c3cccc(C#N)c3)c2-c2ccncc2)CC1` [Example A-422, 1-[5-(3-cyanophenyl)-4-(4-pyrdinyl)-1H-pyrazol-3-yl]4-methylpiperazine]: 223.4 to 224.3 °C. `Cc1n[nH]c(-c2c(F)cccc2F)c1-c1ccncc1` [Example A-184, 4-[3-(2,6-difluorophenyl)-5-methyl-1H-pyrazol-4-yl]pyridine] had a melting point of 236.67 °C.

As for `CSC(SC)=C(C(=O)c1ccc(Cl)cc1)c1ccncc1` [Example A-433], the melting point was 87.6 to 88.2 °C. Under `CCN(CC)c1n[nH]c(-c2ccc(Cl)cc2)c1-c1ccncc1` [Example A-163, 5-(4-chlorophenyl)-N,N-diethyl-4-(4-pyridinyl)-1H-pyrazol-3-amine] stands 260 to 261 °C; under `COc1cc(-c2c(-c3ccncc3)c(-c3ccc(F)cc3)nn2CCO)ccn1` [Example A-193, 3-(4-fluorophenyl)-5-(2-methoxy-4-pyridinyl)-4-(4-pyridinyl)-1H-pyrazole-1-ethanol], 168 to 169 °C. The same measure for `Clc1ccc(-c2n[nH]c(OCCN3CCOCC3)c2-c2ccncc2)cc1` [Example A-440]: 198.9 to 199.9 °C; for `O.O.O=C(O)CCC(=O)N1CCN(c2n[nH]c(-c3ccc(Cl)cc3)c2-c2ccncc2)CC1` (hydrate or solvate) [A-321 (dihydrate), 4-[5-(4-chlorophenyl)-4-(4-pyridinyl)-1H-pyrazol-3-yl]-γ-oxo-1-piperazinebutanoic acid, dihydrate]: 281 to 283 °C (dec.); for `Fc1ccc(-c2[nH]nc(C(F)(F)F)c2-c2ccncc2)cc1` [Example A-190]: 281.94 °C. The same measure for `Cc1nn(C)c(-c2ccc(Cl)cc2)c1-c1ccncc1` [Example A-32, 4-[5-(4-chlorophenyl)-1,3-dimethyl-1H-pyrazol-4-yl]pyridine]: 88.6 °C; for `Clc1cccc(-c2n[nH]cc2-c2ccnc(NCc3ccccc3)c2)c1` [Example A-220, 4-[3-(3-chlorophenyl)-1H-pyrazol-4-yl]-N-(phenylmethyl)-2-pyridinamine]: 179 to 180 °C. On to `Cc1c(-c2ccncc2)c(-c2ccc(Cl)cc2)nn1C` [Example A-204, 4-[3-(4-chlorophenyl)-1,5-dimethyl-1H-pyrazol-4-yl]pyridine], for which the melting point lay in the range of 82 to 88 °C. The same measure for `CS(=O)(=O)N1CCN(c2[nH]nc(-c3ccc(Cl)cc3)c2-c2ccncc2)CC1` (hydrate or solvate) [Example A-320, 1-[5-(4-chlorophenyl)-4-(4-pyridinyl)-1H-pyrazol-3-yl]-4-(methylsulfonyl)piperazine, monohydrate]: 245 to 248 °C; for `CN1CCN(c2n[nH]c(-c3ccc(C(F)(F)F)cc3)c2-c2ccncc2)CC1` [Example A-425]: 240.5 °C (dec.); for `CN1CCN(c2[nH]nc(C3CCCCC3)c2-c2ccncc2)CC1` [Example A-485, 1-[cyclohexyl-4-(4-pyridinyl)-1H-pyrazol-3-yl]-4-methylpiperazine]: > 300 °C (dec.). `COC(=O)c1cc(-c2c[nH]nc2-c2ccc(F)cc2)ccn1` [Example A-224, Methyl 4-[3-(4-fluorophenyl)-1H-pyrazol-4-yl]-2-pyridinecarboxylate] gave a melting point of 239 to 241 °C.

On to `Clc1ccc(-c2[nH]nc(N3CCNCC3)c2-c2ccncc2)cc1` [Example A-328, 1-[5-(4-chlorophenyl)-4-(4-pyridinyl)-1H-pyrazol-3-yl]piperazine], for which the melting point was 264 to 265 °C.

In the case of `Fc1ccc(-c2[nH]nc(N3CCNCC3)c2-c2ccncc2)cc1` (as salt: hydrochloride) [Example A-172, 1-[5-(4-fluorophenyl)-4-(4-pyridinyl)-1H-pyrazol-3-yl]piperazine trihydrochloride], the melting point lay within 204 to 206 °C. Under `CC(C)(C)OC(=O)N1CCN(c2n[nH]c(-c3ccc(F)cc3)c2-c2ccncc2)CC1` [Example A-171, 1,1-dimethylethyl 4-[5-(4-fluorophenyl)-4-(4-pyridinyl)-1H-pyrazol-3-yl]-1-piperazinecarboxylate] stands 243 to 244 °C. The same measure for `CN1CCN(c2n[nH]c(-c3ccc(F)cc3)c2-c2ccncc2)CC1.O.O` (hydrate or solvate): 238 to 240 °C; for `CN1CCN(c2n[nH]c(-c3cccc(C(F)(F)F)c3)c2-c2ccncc2)CC1` [Example A-424]: 212.6 to 213.7 °C.

As to `O=c1cc(-c2c(-c3ccncc3)c(-c3ccc(F)cc3)nn2CCO)cc[nH]1` [Example A-194, 4-[3-(4-fluorophenyl)-1-(2-hydroxyethyl)-4-(4-pyridinyl)-1H-pyrazol-5-yl]-2(1H)-pyridinone], the melting point was 250 to 251 °C. Under `Fc1cccc(-c2[nH]ncc2-c2ccncn2)c1` [Example A-311, 4-[3-(3-fluorophenyl)-1H-pyrazol-4-yl]pyrimidine] stands 168.58 °C; under `CCn1nc(-c2ccc(Cl)cc2)c(-c2ccncc2)c1C` [Example A-206, 4-[3-(4-chlorophenyl)-1-ethyl-5-methyl-1H-pyrazol-4-yl]pyridine], 164.36 °C. The same measure for `CSC(SC)=C(C(=O)c1ccc(F)cc1)c1ccncc1` [Example A-432]: 80.2 to 82.1 °C.

The record behind these values is patent US6525059B1, “Substituted pyrazoles as p38 kinase inhibitors” (G. D. Searle & Company, priority 1998, dated 2003).
